The values below come from patent US12453728B1, “Compositions comprising inhibitors of microsomal triglyceride transfer protein and Apo-B secretion” (Redux Therapeutics, LLC, priority 2024, dated 2025).

Series [1] in a line: Lipid profile and glucose. As to conditions: for glucose: olanzapine study, healthy volunteers.
A short description of series [2]: Body weight change during olanzapine treatment.
A short description of series [3]: Postprandial triglycerides after a standardized breakfast in subjects treated with olanzapine. As to conditions: normal healthy volunteers; 10 mg olanzapine alone, or 10 mg olanzapine + 200 mg Compound 3 BID (days 8-15).
Series [4] in a line: Effect of Compound 3 on steady-state pharmacokinetics of olanzapine. The format is in vivo, human. The conditions noted are these: 200 mg Compound 3 BID with 10 mg olanzapine; days 8 and 15. How it is done:
Postprandial triglycerides and lipid profiles were assessed on study days 1, 8, and 15, olanzapine pharmacokinetics was assessed on study days 8 and 15, and safety and tolerability were assessed throughout. On each of these study days, subjects consumed a standardized breakfast (˜900 kcal; 55% of kcal from fat) in 15 minutes. Blood samples were drawn prior to meal consumption and 1, 2, 3, 4, 6 and 8 hours after initiation of meal.

The conditions of series [5]: in vivo.

Structures are written as SMILES.

As to `COc1cccc(C(=O)Nc2ccc3c(c2)CCN(C(=O)Oc2ccccc2)C3)c1-c1ccc(C(F)(F)F)cc1` [Compound 3], the LDL-C entry in series [1] (Day 9-15, olanzapine alone vs olanzapine + Compound 3) is given as “blunted”. The glucose entry in series [1] is on record as “No changes in glucose were observed”. In addition, in series [2] (second week of the study, 10 mg olanzapine + 200 mg Compound 3 BID), the “blunting of body weight gain from olanzapine” value is “significant blunting in body weight gain”. In addition, the postprandial triglycerides result in series [3] is listed as “greatly reduced postprandial triglycerides”. For the same compound, the “impact on the pharmacokinetic profile of olanzapine” value in series [4] is listed as “did not significantly impact”.

For the compound `Cc1cc2c(s1)Nc1ccccc1N=C2N1CCN(C)CC1` [olanzapine, reference compound], the glucose entry in series [1] is on record as “No changes in glucose were observed”. For the same compound, the “weight gain during the first week of treatment” value in series [2] (normal healthy volunteers, 10 mg olanzapine alone, first week) was “significant weight gain”. Moreover, the “SAEs, fatal events, discontinuations due to adverse events” value in series [5] is recorded as “No SAEs, fatal events, or discontinuations due to adverse events”.
